Data reported in patent US20250235417A1, “Compositions for acute and chronic wounds” (DEBx Medical Holding B.V., priority 2021, published 2025).

Columns and labels:
[1] = estimated / in the order of; cited from earlier work
patients' biofilm = experiment: Tests performed on patients' biofilm
[2] = assay type: physicochemical
Excerpt: The pKa and the Ka values are based on literature references, which include: • E. P. Serjeant and B. Dempsey (eds.), Ionization Constants of Organic Acids in Solution, IUPAC Chemical Data Series No. 23, Pergamon Press, Oxford, UK, 1979; • Part of Journal of Research of the National Bureau of Standards. Volume 31, December 1943, pH VALUES OF ACID.SALT MIXTURES OF SOME AROMATIC SULFONIC ACIDS AT VARIOUS TEMPERATURES AND A CRITERION OF COMPLETENESS OF DISSOCIATION, By Walter j. Hamer. Gladys D. Pinching, and S. F. Acree; • Guthrie, J. P. Hydrolysis of esters of oxy acids: pKa values for strong acids. Can. J. Chem. 1978, 56, 2342-2354;

SMILES	acid dissociation constant, Ka [1]	antimicrobial activity (patients' biofilm)	acid form remaining undissociated upon contact with the biofilm [2]
Cc1cccc(S(=O)(=O)O)c1 [3-methylbenzenesulphonic acid]	~600	considerable antimicrobial activity	
CCc1ccc(S(=O)(=O)O)cc1 [4-Ethylbenzenesulphonic acid]	~600	considerable antimicrobial activity	
CCCCCCCCCCCCc1ccc(S(=O)(=O)O)cc1 [4-dodecylbenzenesulphonic acid]	2-3		about 57%
